According to patent US7060699B2, “Aryl and heteroaryl diazabicycloalkanes, their preparation and use” (priority 2000, dated 2006):
Read-outs that look alike come from different tables or passages of the source.

How the values were obtained:
[1] = molecular target: nAChR formed by the α7 subunit isoform (Rattus norvegicus, UniProt Q05941); test: biochemical; format: binding
[2] = molecular target: nAChR comprised of α4 and β2 subunits (Rattus norvegicus, UniProt P09483+P12390); test: In vitro inhibition of 3H-cytisine binding
Sequence of nAChR comprised of α4 and β2 subunits (P09483 31-630): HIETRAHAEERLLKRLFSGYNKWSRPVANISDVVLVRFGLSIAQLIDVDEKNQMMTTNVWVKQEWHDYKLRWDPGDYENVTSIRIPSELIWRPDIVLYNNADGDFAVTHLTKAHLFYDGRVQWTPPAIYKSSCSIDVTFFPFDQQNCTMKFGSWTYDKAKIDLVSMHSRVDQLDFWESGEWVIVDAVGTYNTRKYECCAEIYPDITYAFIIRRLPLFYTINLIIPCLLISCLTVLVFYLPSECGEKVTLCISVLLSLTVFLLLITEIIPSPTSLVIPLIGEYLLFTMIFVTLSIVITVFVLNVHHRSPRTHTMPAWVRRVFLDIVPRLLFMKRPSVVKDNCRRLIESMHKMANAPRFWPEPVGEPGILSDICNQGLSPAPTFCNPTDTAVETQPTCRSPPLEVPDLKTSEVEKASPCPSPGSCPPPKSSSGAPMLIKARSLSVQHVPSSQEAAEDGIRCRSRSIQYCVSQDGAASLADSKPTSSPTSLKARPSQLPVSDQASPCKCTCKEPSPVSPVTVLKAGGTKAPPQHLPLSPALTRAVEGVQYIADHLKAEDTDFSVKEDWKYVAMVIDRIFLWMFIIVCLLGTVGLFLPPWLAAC
Sequence of nAChR comprised of α4 and β2 subunits (P12390 25-500): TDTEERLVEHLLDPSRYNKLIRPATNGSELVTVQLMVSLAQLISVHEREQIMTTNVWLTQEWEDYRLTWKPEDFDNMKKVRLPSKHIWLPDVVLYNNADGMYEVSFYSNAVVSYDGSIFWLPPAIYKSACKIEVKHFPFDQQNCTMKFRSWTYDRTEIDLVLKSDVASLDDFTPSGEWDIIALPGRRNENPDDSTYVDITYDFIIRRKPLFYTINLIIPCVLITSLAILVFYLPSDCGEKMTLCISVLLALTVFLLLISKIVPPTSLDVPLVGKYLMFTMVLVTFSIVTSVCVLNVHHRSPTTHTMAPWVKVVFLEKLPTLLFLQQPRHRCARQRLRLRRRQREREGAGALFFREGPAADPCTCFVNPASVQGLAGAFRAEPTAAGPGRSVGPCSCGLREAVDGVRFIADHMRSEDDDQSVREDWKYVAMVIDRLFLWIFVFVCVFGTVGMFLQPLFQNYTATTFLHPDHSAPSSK

[3] = molecular target: T1, serotonin transporter (Rattus norvegicus, UniProt P31652); test: In vitro inhibition of 3H-5-hydroxytryptamine (3H-5-HT, serotonin) uptake in cortical synaptosomes; format: biochemical
T1 construct: Cerebral cortices from male Wistar rats (150–200 g) are homogenized; from tissue; host or cells: rat cerebral cortex synaptosomes (P2 pellet)
T1 sequence (P31652 whole entry): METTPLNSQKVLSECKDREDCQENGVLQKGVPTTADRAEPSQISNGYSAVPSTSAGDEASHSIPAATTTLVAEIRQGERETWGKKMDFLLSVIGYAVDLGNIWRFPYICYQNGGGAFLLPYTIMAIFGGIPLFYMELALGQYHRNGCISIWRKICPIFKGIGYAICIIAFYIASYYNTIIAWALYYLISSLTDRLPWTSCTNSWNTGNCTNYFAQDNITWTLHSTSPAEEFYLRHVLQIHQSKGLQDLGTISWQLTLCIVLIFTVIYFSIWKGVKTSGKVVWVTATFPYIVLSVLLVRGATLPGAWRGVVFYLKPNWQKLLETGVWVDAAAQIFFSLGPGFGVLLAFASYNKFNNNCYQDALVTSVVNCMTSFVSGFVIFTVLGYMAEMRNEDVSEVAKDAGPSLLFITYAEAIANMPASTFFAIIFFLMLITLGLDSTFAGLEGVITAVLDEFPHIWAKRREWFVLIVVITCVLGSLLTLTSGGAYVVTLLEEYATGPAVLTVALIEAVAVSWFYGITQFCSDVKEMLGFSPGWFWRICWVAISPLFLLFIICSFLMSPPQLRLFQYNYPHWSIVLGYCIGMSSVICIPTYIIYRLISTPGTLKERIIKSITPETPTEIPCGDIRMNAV
Experimental: In Vitro Inhibition of ^3H-5-hydroxytryptamine (^3H-5-HT, Serotonin) Uptake in Cortical Synaptosomes
Serotonin transporters/uptake sites on nerve terminals presumably function to terminate neuronal signaling by removing serotonin from the synaptic cleft. The activity of the serotonin transporter integral protein can be measured in vitro by synaptosomal uptake of ^3H-5-hydroxytryptamine.
Preparations are performed at 0–4° C. unless otherwise indicated. Cerebral cortices from male Wistar rats (150–200 g) are homogenized for 5–10 sec in 100 volumes of ice-cold 0.32M sucrose containing 1 mM pargyline using a motor driven teflon pestle in a glass homogenizing vessel. Monoamine oxidase activity will be inhibited in the presence of pargyline. The homogenate is centrifuged at 1000×g for 10 min. The resulting supernatant is then centrifuged at 27,000×g for 50 min and the supernatant is discarded.
Aliquots of 4.0 ml tissue suspension are added to 100 µl of test solution and 100 μl of ^3H-5-HT (1 nM, final concentration), mixed and incubated for 30 min at 37° C. Non-specific uptake is determined using citalopram (1 μM, final concentration). After incubation the samples are poured directly onto Whatman GF/C glass fibre filters under suction. The filters are then washed three times with 5 ml of ice-cold 0.9% (w/v) NaCl solution. The amount of radioactivity on the filters is determined by conventional liquid scintillation counting. Specific uptake is calculated as the difference between total uptake and non-specific uptake.
where C0 is specific binding in control assays and Cx is the specific binding in the test assay (the calculations assume normal mass-action kinetics).

[4] = cerebral cortex homogenate from male Wistar rats, 3H-cytisine 1 nM, 90 min at 2° C., read-out: 3H-cytisine binding IC50

Sequence of nAChR formed by the α7 subunit isoform (Q05941 23-502): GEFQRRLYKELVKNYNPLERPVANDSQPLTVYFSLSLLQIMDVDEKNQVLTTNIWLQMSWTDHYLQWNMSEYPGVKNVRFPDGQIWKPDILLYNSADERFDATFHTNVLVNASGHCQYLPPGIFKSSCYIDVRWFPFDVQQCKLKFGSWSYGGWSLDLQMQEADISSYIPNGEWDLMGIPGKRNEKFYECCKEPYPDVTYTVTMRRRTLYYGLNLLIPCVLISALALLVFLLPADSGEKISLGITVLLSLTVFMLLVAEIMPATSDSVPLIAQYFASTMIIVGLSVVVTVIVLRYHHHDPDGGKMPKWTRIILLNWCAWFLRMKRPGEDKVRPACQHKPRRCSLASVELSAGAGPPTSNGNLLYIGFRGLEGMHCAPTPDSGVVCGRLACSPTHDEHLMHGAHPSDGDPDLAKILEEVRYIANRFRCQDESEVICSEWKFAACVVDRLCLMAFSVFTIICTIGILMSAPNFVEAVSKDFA

Compound	IC50 [1] [nM]	IC50 [2, 4] [nM]	IC50 [3] [nM]	IC50 [2] [nM]
CN1CCC2CCC(C1)N2c1ccc(-c2ccccc2)nn1 (racemic) [Compound F10, (±) 3-Methyl-9-(6-phenyl-3-pyridazinyl)-3,9-diazabicyclo-[4.2.1]-nonane]	800	27000	–	–
CN1C2CCC1CN(c1ccc3ccccc3n1)CC2 (racemic) [Compound 2, (±) 3-(2-Quinolinyl)-9-methyl-3,9-diazabicyclo-[4.2.1]-nonane]	–	–	13	–
CN1C2CCC1CN(c1ccc(-c3ccsc3)nc1)CC2 (racemic) [Compound F5, (±) 3-[6-(3-Thienyl)-3-pyridyl]-9-methyl-3,9-diazabicyclo-[4.2.1]-nonane]	280	1500	–	–
CN1C2CCC1CN(c1ccc(Cl)c(Cl)c1)CC2 (racemic) [Compound A1, (±) 3-(3,4-Dichlorophenyl)-9-methyl-3,9-diazabicyclo-[4.2.1]-nonane]	–	–	32	–
CN1C2CCC1CN(c1ccc(-c3ccccc3)nn1)CC2 (racemic) [Compound C2, (±) 3-(6-Phenyl-3-pyridazinyl)-9-methyl-3,9-diazabicyclo-[4.2.1]-nonane]	410	> 10000	–	–
CN1C2CCC1CN(c1cncc(OCCOc3cncc(N4CCC5CCC(C4)N5C)c3)c1)CC2 (racemic) [Compound B7, (±) O,O′-bis-[5-(9-Methyl-3,9-diazabicyclo-[4.2.1]-nonan-3-yl)-3-pyridyl]-ethyleneglycol]	> 10000	–	–	13
CN1C2CCC1CN(c1ccc3cc([N+](=O)[O-])ccc3n1)CC2 (racemic) [Compound C3, (±) 3-(6-Nitro-2-quinolinyl)-9-methyl-3,9-diazabicyclo-[4.2.1]-nonane]	–	–	3.7	–
c1ccc2ncc(N3CCC4CCC(C3)N4)cc2c1 (racemic) [Compound B5, (±) 3-(3-Quinolinyl)-9-H-3,9-diazabicyclo-[4.2.1]-nonane]	–	–	49	–
Cc1ccccc1-c1ccc(N2CCC3CCC(C2)N3C)cn1 (racemic) [Compound F1, (±) 3-[6-(2-Toluyl)-3-pyridyl]-9-methyl-3,9-diazabicyclo-[4.2.1]-nonane]	5500	–	–	99
CN1C2CCC1CN(c1ccc3ccccc3c1)CC2 (racemic) [Compound 1, (±) 3-(2-Naphthalyl)-9-methyl-3,9-diazabicyclo-[4.2.1]-nonane]	–	–	40	–
